According to ChEMBL document CHEMBL1152679, “The lifespan-promoting effect of acetic acid and Reishi polysaccharide” (2009):
The source made the active and inactive calls. The rule behind the calls is not given here.

Test system: Caenorhabditis elegans
Assay: Longevity-promoting activity in wild type Caenorhabditis elegans N2 assessed as increase in lifespan at 50 ppm by microscopic analysis
Format: functional, organism-based

## CC(=O)O
  Activity: Active

## O=C(O)c1ccccc1
  Activity: inactive

## O=C(O)CC(O)(CC(=O)O)C(=O)O
  Activity: inactive
